This note sets out measurements from ChEMBL document CHEMBL4610107, “Ene-yne Hydroquinones from a Marine-derived Strain of the Fungus Pestalotiopsis neglecta with Effects on Liver X Receptor Alpha” (J Nat Prod, 2020).

The test addresses T1, Oxysterols receptor LXR-alpha (Homo sapiens, UniProt Q13133).
T1 sequence (Q13133 whole entry): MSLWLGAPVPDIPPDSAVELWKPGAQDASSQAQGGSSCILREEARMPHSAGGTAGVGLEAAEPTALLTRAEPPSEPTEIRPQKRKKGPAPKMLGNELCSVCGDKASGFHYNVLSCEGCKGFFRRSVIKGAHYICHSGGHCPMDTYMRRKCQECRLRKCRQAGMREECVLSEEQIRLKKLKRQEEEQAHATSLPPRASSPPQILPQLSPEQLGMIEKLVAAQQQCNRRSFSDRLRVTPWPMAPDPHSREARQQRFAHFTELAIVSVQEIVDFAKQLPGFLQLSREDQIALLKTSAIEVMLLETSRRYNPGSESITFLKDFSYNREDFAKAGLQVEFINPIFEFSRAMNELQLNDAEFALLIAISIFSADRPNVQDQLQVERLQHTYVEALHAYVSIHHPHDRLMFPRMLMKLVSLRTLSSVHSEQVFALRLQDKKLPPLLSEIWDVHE
In words: Binding affinity to LXRalpha (unknown origin) by surface plasmon resonance assay.

For `O=C(O)Cc1cccc(OCCCN(Cc2cccc(C(F)(F)F)c2Cl)CC(c2ccccc2)c2ccccc2)c1`, the Kd result is “Not Active”.
